System: OCI-LY10 cells
Experiment: OCI-LY-10 CTG cell viability assay (EC50)
Assay type: cell-based
Details: Homo sapiens, 96 h, CellTiter-Glo cell viability, 4 days incubation, top concentration 10 μM, read-out: OCI-LY10 IRAK4 EC50
Protocol: A CTG cell viability assay using OCI-LY-10 cells was run to determine compound-mediated cell viability (EC50).
Compound-mediated viability effect on OCI-LY10 was quantitatively determined using the CellTiter-Glo® Luminescent Cell Viability Assay kit from Promega (Catalog number G7570) following manufacturer's recommended procedures. […] Compounds were then added to the assay plate with final top concentration of 10 μM and 1:3 dilution series with total of 9 doses. The final DMSO concentration was normalized to 0.2%. The assay plates were incubated at 37° C. for 4 days under 5% CO2. Then the assay plate was equilibrated at room temperature for 10 minutes. […] The data was then analyzed by software Prism 7.0 from GraphPad and the dose response curves were fit using a three-parameter logistic equation to calculate EC50.

| Compound | EC50 [nM] |
| --- | --- |
| CN(CCCOCCCc1ccc2c(c1)n(C)c(=O)n2C1CCC(=O)NC1=O)C(=O)c1ccc(-n2cc(NC(=O)c3coc(-c4ccnc(NCC(F)(F)F)c4)n3)c(C(N)=O)n2)cc1 (stereo not drawn) [I-494] | > 1000 |
| Cc1ncsc1-c1ccc(CNC(=O)[C@@H]2C[C@@H](O)CN2C(=O)[C@@H](NC(=O)COCCOCCOCC(=O)N2CCN(c3ccn4ncc(C(=O)Nc5cn(C)nc5C(F)F)c4n3)CC2)C(C)(C)C)cc1 [I-485] | > 1000 |
| Cn1cc(NC(=O)c2cnn3ccc(N4CCN(C(=O)COCCOCCOCCOCCCc5cccc6c5n(C)c(=O)n6C5CCC(=O)NC5=O)CC4)nc23)c(C(F)F)n1 (stereo not drawn) [I-465] | > 1000 |
| Cn1cc(NC(=O)c2coc(-c3ccnc(NCC(F)(F)F)c3)n2)c(C(=O)NCCOCCOCCOCCCc2cccc3c2n(C)c(=O)n3C2CCC(=O)NC2=O)n1 (stereo not drawn) [I-464] | > 1000 |
| Cn1cc(NC(=O)c2cnn3ccc(N4CCN(C(=O)COCCOCCOCCOCCCc5ccc6c(c5)n(C)c(=O)n6C5CCC(=O)NC5=O)CC4)nc23)c(C(F)F)n1 (stereo not drawn) [I-466] | > 1000 |
| Cn1c(=O)n(C2CCC(=O)NC2=O)c2ccc(CCCOCCOCCNC(c3ccc(-n4cc(NC(=O)c5coc(-c6ccnc(NCC7CC7)c6)n5)c(C(N)=O)n4)cc3)C(F)(F)F)cc21 (stereo not drawn) [I-448] | 100 to 500 |

The next lines start with the values.

| EC50 [nM] | Compound |
| --- | --- |
| 50 to 100 | O=C1CCC(n2c3ccc(NCCOCCOCCNCc4ccc(-n5cc(NC(=O)c6coc(-c7ccnc(NCC8CC8)c7)n6)c(C(F)F)n5)cc4)cc3c3cccnc32)C(=O)N1 (stereo not drawn) [I-595] |
| > 1000 | Cn1cc(NC(=O)c2coc(-c3ccnc(NCC(F)(F)F)c3)n2)c(-c2cncc(CNCCOCCOCCCc3cccc4c3n(C)c(=O)n4C3CCC(=O)NC3=O)c2)n1 (stereo not drawn) [I-541] |
| 500 to 1000 | Cn1c(=O)n(C2CCC(=O)NC2=O)c2cccc(CCCOCCNCc3ccc(-n4cc(NC(=O)c5coc(-c6ccnc(NCC(F)(F)F)c6)n5)c(C(F)F)n4)cc3)c21 (stereo not drawn) [I-533] |
| > 1000 | CN1C(=O)CCC(n2c(=O)n(C)c3c(CCCOCCOCCNCc4ccc(-n5cc(NC(=O)c6coc(-c7ccnc(NCC8CC8)c7)n6)c(C(F)F)n5)cc4)cccc32)C1=O (stereo not drawn) [I-596] |
| > 1000 | Cn1ncc2nc(Nc3cnn(CCOCCOCCOCCNc4cccc5c4C(=O)N(C4CCC(=O)NC4=O)C5=O)c3)nc(NC3CCC(N4CCOCC4)CC3)c21 (stereo not drawn) [I-691] |
| < 50 | Cn1c(=O)n(C2CCC(=O)NC2=O)c2ccc(CCCC(C)(O)CCCNCc3ccc(-n4cc(NC(=O)c5coc(-c6ccnc(NCC7CC7)c6)n5)c(C(F)F)n4)cc3)cc21 (stereo not drawn) [I-540] |
| > 1000 | Cn1c(=O)n(C2CCC(=O)NC2=O)c2ccc(CCCN3CCO[C@H](CNCc4ccc(-n5cc(NC(=O)c6coc(-c7ccnc(NCC8CC8)c7)n6)c(C(F)F)n5)cc4)C3)cc21 (stereo partly drawn) [I-573] |
| > 1000 | Cc1ncsc1-c1ccc(CNC(=O)[C@@H]2C[C@@H](O)CN2C(=O)[C@@H](NCCOCCOCCOCCNCc2nn(C)cc2NC(=O)c2coc(-c3ccnc(NCC(F)(F)F)c3)n2)C(C)(C)C)cc1 [I-524] |
| > 1000 | Cn1c(=O)n(C2CCC(=O)NC2=O)c2cccc(CCCOCCOCCNCc3ccc(-n4cc5c(n4)CCCN5C(=O)c4coc(-c5ccnc(NCC(F)(F)F)c5)n4)cc3)c21 (stereo not drawn) [I-528] |
